Experimental data from patent US7144903B2, “CCR4 antagonists” (Amgen Inc., priority 2001, dated 2006).
pIC50: −log10 of the molar value.

target: T1, CCR4 (Homo sapiens, UniProt P51679); experiment: CCR4 binding assay: inhibition of 125I-TARC binding to cells expressing CCR4 (e.g., CEM cells); conditions: not given
T1 construct: cells expressing CCR4 (e.g., CEM cells, available from the ATCC); host or cells: CEM cells
T1 sequence (P51679 1-360): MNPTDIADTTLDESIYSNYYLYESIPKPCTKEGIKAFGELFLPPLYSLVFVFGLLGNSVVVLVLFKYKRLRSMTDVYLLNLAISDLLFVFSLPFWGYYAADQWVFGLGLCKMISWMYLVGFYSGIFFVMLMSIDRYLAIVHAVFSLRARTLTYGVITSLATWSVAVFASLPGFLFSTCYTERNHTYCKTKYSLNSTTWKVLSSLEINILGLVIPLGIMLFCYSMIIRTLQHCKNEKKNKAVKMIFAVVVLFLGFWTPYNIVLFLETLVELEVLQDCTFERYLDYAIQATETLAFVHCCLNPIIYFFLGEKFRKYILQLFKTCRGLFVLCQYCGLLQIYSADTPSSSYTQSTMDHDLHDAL
Source text: This example illustrates a CCR4 binding assay that can be used for evaluating the compounds of the present invention.
Detection of Radiolabelled TARC and/or MDC Binding to CCR4
^125I-labelled TARC and MDC are available from commercial sources (e.g., Amersham-Pharmacia or Perkin Elmer Life Sciences). All buffers and materials are available from commercial sources (e.g., Gibco BRL, Sigma). To measure binding of ^125I-TARC or ^125I-MDC to cells expressing CCR4 (e.g., CEM cells, available from the ATCC), the ^125I-TARC or ^125I-MDC is diluted to a concentration of approximately 200 pM in a buffered saline solution (e.g., RPMI supplemented with 0.5% bovine serum albumin), and added to an equal volume of a suspension of cells (e.g., CEM cells at 5×10^6 cells/mL). The resulting mixture is incubated for a period of time (e.g., 2 hours). The unbound ^125I-TARC or ^125I-MDC is separated from the cells by filtration, e.g., by passage through GF/B filter plate (Packard Biosciences) pre-treated with 0.3% polyethyleneimine (Sigma), using a Packard Filtermate 96 (Packard Biosciences). The amount of ^125I-TARC or ^125I-MDC retained with the cells on the filterplate is measured by adding a small amount of scintillation fluid (e.g., 50 μL of Microscint-20, obtained from Packard Biosciences), and reading scintillation on appropriate detection equipment, e.g., a Packard TopCount 383 (Packard Biosciences).
Non-specific binding of ^125I-TARC or ^125I-MDC can be estimated by measuring the amount of ^125I-TARC or ^125I-MDC retained with the cells on the filterplate when the assay is performed in the presence of a large excess of unlabelled TARC or MDC.
Inhibition of ^125I-TARC or ^125I-MDC binding to CCR4 is defined as a decrease in the retention of ^125I-TARC or ^125I-MDC to the cells on the filterplate.
The assay described above varies only moderately from standardly used procedures, e.g., Imai et al. (1997) J. Biol. Chem. 272:15036–15042, Imai et al. (1998) J. Biol. Chem. 273:1764–1768.

Structure (SMILES)	pIC50
Clc1ccc2nc(Nc3cccc4ccccc34)sc2c1 [Compound 18]	< 6.00

same assay, conditions: CCR4 antagonist activity, inhibition of 125I-TARC binding; read-out: IC50

pIC50	Structure (SMILES)
> 6.00	CC(C)(C)c1csc(Nc2ccccc2N2CCOCC2)n1 [Compound 1]
< 6.00	Cc1cccc(Nc2nc(C(C)(C)C)cs2)c1C [Compound 2]
> 6.00	CC(C)(C)c1csc(NCc2ccccc2)n1 [Compound 3]
> 6.00	CC(C)(C)c1csc(Nc2ccc(Cl)c3ccccc23)n1 [Compound 4]
< 6.00	CC(C)(C)c1csc(Nc2cccc3c2CCCC3)n1 [Compound 5]
< 6.00	Cc1c(Br)cccc1Nc1nc(C(C)(C)C)cs1 [Compound 6]
> 6.00	CC(C)(C)c1csc(Nc2cccc3ncccc23)n1 [Compound 7]
< 6.00	CC(C)(C)Cc1csc(Nc2cccc3ccccc23)n1 [Compound 8]
< 6.00	CCCc1sc(Nc2cccc3ccccc23)nc1C(C)(C)C [Compound 9]
< 6.00	Cc1sc(Nc2cccc3ccccc23)nc1C(C)(C)C [Compound 10]
< 6.00	CC(C)(C)c1csc(Nc2cccc3ccccc23)n1 [Compound 11]
< 6.00	CC(C)c1csc(Nc2cccc3ccccc23)n1 [Compound 12]
< 6.00	CCOC(=O)CC(C)(C)c1csc(Nc2cccc3ccccc23)n1 [Compound 13]
< 6.00	CC(=O)c1csc(Nc2cccc3ccccc23)n1 [Compound 15, 4-Acetoyl-2-naphthylamino thiazole]
> 6.00	c1ccc(CN2CCc3sc(Nc4cccc5ccccc45)nc3C2)cc1 [Compound 19]
< 6.00	CC(C)(C)c1csc(Nc2cccnc2CCCC2CCCC2)n1 [Compound 20, (4-tert-Butyl-thiazol-2-yl)-[2-(3-cyclopentyl-propyl)-pyridin-3-yl]-amine]
> 6.00	Cn1ccc2c(Nc3nc(C(C)(C)C)cs3)cccc21 [Compound 21, (4-tert-Butyl-thiazol-2-yl)-(1-methyl-1H-indol-4-yl)-amine]
> 6.00	Cn1ccc2c(Nc3nc(CN(Cc4ccccc4OC(F)(F)F)CC4CCCCC4)cs3)cccc21 [Compound 24, (4-{[Cyclohexylmethyl-(2-trifluoromethoxy-benzyl)-amino]-methyl}-thiazol-2-yl)-(1-methyl-1H-indol-4-yl)-amine]
> 6.00	FC(F)(F)c1ccccc1CN(Cc1csc(Nc2cccc3ncccc23)n1)CC1CCCCC1 [Compound 35]
> 6.00	Cc1cccc(Nc2nc(CN(CC(C)C)CC(C)C)co2)c1C [Compound 45, {4-[(Diisobutylamino)-methyl]-oxazol-2-yl}-(2,3-dimethyl-phenyl)-amine]
> 6.00	CC(C)CCCc1ccccc1Nc1nc(C(C)(C)C)cs1 [Compound 49]
